System: not given
Assay: not given
Details: not given
With `Clc1ccccc1Oc1ncc2c(-c3cccs3)n[nH]c2n1` [Example 14, 6-(2-Chloro-phenoxy)-3-thiophen-2-yl-1H-pyrazolo[3,4-d]pyrimidine] the melting point was 221.3 to 223.1 °C.
`C[C@H](O)CNc1nc(Oc2ccc(F)cc2F)nc2[nH]nc(-c3ccccc3Cl)c12` [Example 16, (S)-1-[3-(2-chlorophenyl)-6-(2,4-difluorophenoxy)-1H-pyrazolo[3,4-d]pyrimidin-4-ylamino]propan-2-ol] showed a melting point of 254.6 to 258.2 °C.
Work on `Fc1ccc(Oc2cnc3c(-c4ccccc4Cl)n[nH]c3n2)c(F)c1` [Example 5, 3-(2-chlorophenyl)-6-(2,4-difluorophenoxy)-1H-pyrazolo[3,4-b]pyrazine] yielded a melting point of 240.5 to 241.5 °C.
In the case of `C[C@H](O)CNc1nc(Oc2ccc(F)cc2F)cc2[nH]nc(-c3ccccc3Cl)c12` [Example 24, (S)-1-[3-(2-Chloro-phenyl)-6-(2,4-difluoro-phenoxy)-1H-pyrazolo[4,3-c]pyridin-4-ylamino]-propan-2-ol], the melting point is reported as 171.2 to 172 °C.
Work on `COc1ccccc1-c1n[nH]c2cc(Oc3ccc(F)cc3F)cnc12` [Example 8, 6-(2,4-Difluoro-phenoxy)-3-(2-methoxy-phenyl)-1H-pyrazolo[4,3-b]pyridine] yielded a melting point of 143.2 to 144.9 °C.
`Fc1ccc(Sc2ncc3c(-c4ccccc4Cl)n[nH]c3n2)c(F)c1` [Example 3, 3-(2-chlorophenyl)-6-(2,4-difluorophenylsulfanyl)-1H-pyrazolo[3,4-d]pyrimidine] showed a melting point of 177.6 to 183.2 °C.
With `OC[C@H](O)COc1nc(Oc2ccc(F)cc2F)nc2[nH]nc(-c3ccccc3Cl)c12` [Example 20, (S)-3-[3-(2-Chloro-phenyl)-6-(2,4-difluoro-phenoxy)-1H-pyrazolo[3,4-d]pyrimidin-4-yloxy]-propane-1,2-diol] the melting point was 179.2 to 181.3 °C.
`Fc1ccc(Oc2ncc3c(-c4ccccc4Cl)n[nH]c3n2)c(F)c1` [Example 1, 3-(2-chlorophenyl)-6-(2,4-difluoro-phenoxy)-1H-pyrazolo[3,4-d]pyrimidine] showed a melting point of 173.4 to 176.4 °C.
For `Fc1ccccc1Nc1ncc2c(-c3ccccc3Cl)n[nH]c2n1` [Example 2, [3-(2-chlorophenyl)-1H-pyrazolo[3,4-d]pyrimidin-6-yl]-(2-fluorophenyl)amine], the melting point was 230.2 to 232.4 °C.

Target: T1, p38 MAP kinase (Homo sapiens, UniProt Q16539)
T1 construct: made in house; host or cells: E. coli (co-expressed with SEK-1 and MEKK to obtain the phosphorylated form)
T1 sequence (Q16539 whole entry): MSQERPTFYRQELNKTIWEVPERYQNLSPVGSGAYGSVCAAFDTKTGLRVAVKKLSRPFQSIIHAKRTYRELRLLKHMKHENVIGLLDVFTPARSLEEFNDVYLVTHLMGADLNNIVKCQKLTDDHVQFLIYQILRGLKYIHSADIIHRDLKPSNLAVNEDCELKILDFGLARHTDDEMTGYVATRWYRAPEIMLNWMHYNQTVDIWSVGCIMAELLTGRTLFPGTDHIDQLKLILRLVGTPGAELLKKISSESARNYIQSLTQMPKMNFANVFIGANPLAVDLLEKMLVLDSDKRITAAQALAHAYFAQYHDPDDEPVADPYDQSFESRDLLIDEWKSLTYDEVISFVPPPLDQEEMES
Assay: p38 (MAP) kinase in vitro assay
Type: biochemical
Details: transfer of γ-33P from ATP to Myelin Basic Protein by phosphorylated recombinant p38 MAP kinase
Experimental: This example illustrates a p38 (MAP) kinase in vitro assay useful for evaluating the compounds of the invention.
The p38 MAP kinase inhibitory activity of compounds of this invention in vitro was determined by measuring the transfer of the γ-phosphate from γ-^33P-ATP by p-38 kinase to Myelin Basic Protein (MBP), using a minor modification of the method described in Ahn, et al., J. Biol. Chem. 266:4220-4227 (1991). […] The phosphorylated form of the recombinant p38 MAP kinase was co-expressed with SEK-1 and MEKK in E. Coli (see, Khokhlatchev, et al., J. Biol. Chem. 272:11057-11062 (1997)) and then purified by affinity chromatography using a Nickel column.
The phosphorylated p38 MAP kinase was diluted in kinase buffer (20 mM 3-(N-morpholino)propanesulfonic acid, pH 7.2, 25 mM β-glycerol phosphate, 5 mM ethylene glycol-bis(beta-aminoethyl ether)-N,N,N′,N′-tetraacetic acid, 1 mM sodium or tho-vanadate, 1 mM dithiothreitol, 40 mM magnesium chloride). Test compound dissolved in DMSO or only DMSO (control) was added and the samples were incubated for 10 min at 30° C. The kinase reaction was initiated by the addition of a substrate cocktail containing MBP and γ-^33P-ATP. […] The phosphorylated MBP was then separated from the residual γ-^33P-ATP using a phosphocellulose membrane (Millipore, Bedfrod, Mass.) and quantitated using a scintillation counter (Packard, Meriden, Conn.).
Work on `CC(C)(O)CNc1nc(Oc2ccc(F)cc2F)cc2[nH]nc(-c3cc(F)ccc3F)c12` [Compound 45, 1-[6-(2,4-Difluoro-phenoxy)-3-(2,5-difluoro-phenyl)-1H-pyrazolo[4,3-c]pyridin-4-ylamino]-2-methyl-propan-2-ol] yielded an IC50 of about 1 nM.

Reference: patent publication US7566708B2, “Substituted pyrazolo{3,4-D}pyrimidines as p38 map kinase inhibitors” (Roche Palo Alto LLC, priority 2005, dated 2009)
